Test results taken from patent US20030186434A1, “Method of forming vertebrate pancreas in vitro” (priority 2002, published 2003).

Key:
[1] = test system: blastopore upper lip of early gastrula of a Xenopus; experiment: Timing of retinoic acid treatment: preculture of blastopore upper lip before one hour treatment; format: cell-based; conditions: 10^−4 M, treated 1 hour, cultured 10 days
Experimental: Regarding the other tissues, an intestinal epithelium was formed aside from notochord and mesenchyme in those precultured for 0 and 5 hours. However, as to those treated with retinoic acid after preculture for more than 15 hours, the formation of intestinal epithelium was suppressed and the differentiation rate of epithelium, coelomic epithelium and pharyngeal epithelium increased.

[2] = test system: blastopore upper lip of early gastrula of a Xenopus; experiment: Tissue differentiation of blastopore upper lip cultured continuously in retinoic acid solution for 10 days; format: cell-based; conditions: for Atypical epidermis differentiated, specimens (%) / Cartilage differentiated, specimens (%) / Cement gland differentiated, specimens (%) / Coelomic epithelium differentiated, specimens (%) / Ear vesicle differentiated, specimens (%) / Epidermis differentiated, specimens (%) / Eye or its fragments differentiated, specimens (%) / Gastric gland differentiated, specimens (%) / Hemocyte differentiated, specimens (%) / Intestinal epithelium differentiated, specimens (%) / Mesenchyme differentiated, specimens (%) / Muscle differentiated, specimens (%) / Neural tissue differentiated, specimens (%) / Notochord differentiated, specimens (%) / Pancreas differentiated, specimens (%) / Pharyngeal epithelium differentiated, specimens (%) / Pronephros differentiated, specimens (%) / Yolk-rich cell differentiated, specimens (%): continuous 10 days
[3] = preculture 0 hours, 34 specimens
[4] = preculture 5 hours, 36 specimens
[5] = preculture 15 hours, 40 specimens
[6] = preculture 25 hours, 34 specimens

CC1=C(/C=C/C(C)=C/C=C/C(C)=C/C(=O)O)C(C)(C)CCC1 [Retinoic acid, retinoic acid]
Atypical epidermis differentiated, specimens (%) [1, 3]: 0 (0)
Cartilage differentiated, specimens (%) [1, 3]: 0 (0)
Cement gland differentiated, specimens (%) [1, 3]: 0 (0)
Coelomic epithelium differentiated, specimens (%) [1, 3]: 0 (0)
Ear vesicle differentiated, specimens (%) [1, 3]: 0 (0)
Epidermis differentiated, specimens (%) [1, 3]: 11 (32)
Eye or its fragments differentiated, specimens (%) [1, 3]: 0 (0)
Gastric gland differentiated, specimens (%) [1, 3]: 0 (0)
Hemocyte differentiated, specimens (%) [1, 3]: 0 (0)
Intestinal epithelium differentiated, specimens (%) [1, 3]: 34 (100)
Mesenchyme differentiated, specimens (%) [1, 3]: 23 (68)
Muscle differentiated, specimens (%) [1, 3]: 1 (3)
Neural tissue differentiated, specimens (%) [1, 3]: 0 (0)
Notochord differentiated, specimens (%) [1, 3]: 33 (97)
Pancreas differentiated, specimens (%) [1, 3]: 24 (71)
Pharyngeal epithelium differentiated, specimens (%) [1, 3]: 25 (74)
Pronephros differentiated, specimens (%) [1, 3]: 0 (0)
Yolk-rich cell differentiated, specimens (%) [1, 3]: 32 (94)
Atypical epidermis differentiated, specimens (%) [1, 4]: 0 (0)
Cartilage differentiated, specimens (%) [1, 4]: 0 (0)
Cement gland differentiated, specimens (%) [1, 4]: 0 (0)
Coelomic epithelium differentiated, specimens (%) [1, 4]: 0 (0)
Ear vesicle differentiated, specimens (%) [1, 4]: 0 (0)
Epidermis differentiated, specimens (%) [1, 4]: 5 (14)
Eye or its fragments differentiated, specimens (%) [1, 4]: 0 (0)
Gastric gland differentiated, specimens (%) [1, 4]: 0 (0)
Hemocyte differentiated, specimens (%) [1, 4]: 0 (0)
Intestinal epithelium differentiated, specimens (%) [1, 4]: 33 (92)
Mesenchyme differentiated, specimens (%) [1, 4]: 30 (83)
Muscle differentiated, specimens (%) [1, 4]: 0 (0)
Neural tissue differentiated, specimens (%) [1, 4]: 0 (0)
Notochord differentiated, specimens (%) [1, 4]: 36 (100)
Pancreas differentiated, specimens (%) [1, 4]: 19 (53)
Pharyngeal epithelium differentiated, specimens (%) [1, 4]: 27 (75)
Pronephros differentiated, specimens (%) [1, 4]: 0 (0)
Yolk-rich cell differentiated, specimens (%) [1, 4]: 30 (83)
Atypical epidermis differentiated, specimens (%) [1, 5]: 0 (0)
Cartilage differentiated, specimens (%) [1, 5]: 0 (0)
Cement gland differentiated, specimens (%) [1, 5]: 0 (0)
Ear vesicle differentiated, specimens (%) [1, 5]: 0 (0)
Epidermis differentiated, specimens (%) [1, 5]: 13 (33)
Eye or its fragments differentiated, specimens (%) [1, 5]: 0 (0)
Hemocyte differentiated, specimens (%) [1, 5]: 0 (0)
Mesenchyme differentiated, specimens (%) [1, 5]: 40 (95)
Muscle differentiated, specimens (%) [1, 5]: 0 (0)
Neural tissue differentiated, specimens (%) [1, 5]: 0 (0)
Pronephros differentiated, specimens (%) [1, 5]: 0 (0)
Atypical epidermis differentiated, specimens (%) [1, 6]: 0 (0)
Cartilage differentiated, specimens (%) [1, 6]: 0 (0)
Cement gland differentiated, specimens (%) [1, 6]: 0 (0)
Coelomic epithelium differentiated, specimens (%) [1, 6]: 16 (47)
Ear vesicle differentiated, specimens (%) [1, 6]: 0 (0)
Epidermis differentiated, specimens (%) [1, 6]: 28 (82)
Eye or its fragments differentiated, specimens (%) [1, 6]: 0 (0)
Gastric gland differentiated, specimens (%) [1, 6]: 0 (0)
Hemocyte differentiated, specimens (%) [1, 6]: 0 (0)
Intestinal epithelium differentiated, specimens (%) [1, 6]: 5 (15)
Mesenchyme differentiated, specimens (%) [1, 6]: 34 (100)
Muscle differentiated, specimens (%) [1, 6]: 1 (3)
Neural tissue differentiated, specimens (%) [1, 6]: 0 (0)
Notochord differentiated, specimens (%) [1, 6]: 33 (97)
Pancreas differentiated, specimens (%) [1, 6]: 0 (0)
Pharyngeal epithelium differentiated, specimens (%) [1, 6]: 34 (100)
Pronephros differentiated, specimens (%) [1, 6]: 0 (0)
Yolk-rich cell differentiated, specimens (%) [1, 6]: 20 (59)
survival of explants while being cultured ([2]; 10^−4 M, continuous treatment): all the explants died
Atypical epidermis differentiated, specimens (%) ([2]; 10^−5 M, 17 specimens): 0 (0)
Cartilage differentiated, specimens (%) ([2]; 10^−5 M, 17 specimens): 0 (0)
Cement gland differentiated, specimens (%) ([2]; 10^−5 M, 17 specimens): 0 (0)
Coelomic epithelium differentiated, specimens (%) ([2]; 10^−5 M, 17 specimens): 2 (12)
Ear vesicle differentiated, specimens (%) ([2]; 10^−5 M, 17 specimens): 0 (0)
Epidermis differentiated, specimens (%) ([2]; 10^−5 M, 17 specimens): 7 (41)
Eye or its fragments differentiated, specimens (%) ([2]; 10^−5 M, 17 specimens): 0 (0)
Gastric gland differentiated, specimens (%) ([2]; 10^−5 M, 17 specimens): 0 (0)
Hemocyte differentiated, specimens (%) ([2]; 10^−5 M, 17 specimens): 0 (0)
Intestinal epithelium differentiated, specimens (%) ([2]; 10^−5 M, 17 specimens): 8 (47)
Mesenchyme differentiated, specimens (%) ([2]; 10^−5 M, 17 specimens): 8 (47)
Muscle differentiated, specimens (%) ([2]; 10^−5 M, 17 specimens): 0 (0)
Neural tissue differentiated, specimens (%) ([2]; 10^−5 M, 17 specimens): 0 (0)
Notochord differentiated, specimens (%) ([2]; 10^−5 M, 17 specimens): 14 (82)
Pancreas differentiated, specimens (%) ([2]; 10^−5 M, 17 specimens): 2 (12)
Pharyngeal epithelium differentiated, specimens (%) ([2]; 10^−5 M, 17 specimens): 5 (29)
Pronephros differentiated, specimens (%) ([2]; 10^−5 M, 17 specimens): 0 (0)
Yolk-rich cell differentiated, specimens (%) ([2]; 10^−5 M, 17 specimens): 15 (88)
Atypical epidermis differentiated, specimens (%) ([2]; 10^−6 M, 16 specimens): 0 (0)
Cartilage differentiated, specimens (%) ([2]; 10^−6 M, 16 specimens): 0 (0)
Cement gland differentiated, specimens (%) ([2]; 10^−6 M, 16 specimens): 0 (0)
Coelomic epithelium differentiated, specimens (%) ([2]; 10^−6 M, 16 specimens): 2 (13)
Ear vesicle differentiated, specimens (%) ([2]; 10^−6 M, 16 specimens): 0 (0)
Epidermis differentiated, specimens (%) ([2]; 10^−6 M, 16 specimens): 1 (6)
Eye or its fragments differentiated, specimens (%) ([2]; 10^−6 M, 16 specimens): 0 (0)
Gastric gland differentiated, specimens (%) ([2]; 10^−6 M, 16 specimens): 2 (13)
Hemocyte differentiated, specimens (%) ([2]; 10^−6 M, 16 specimens): 0 (0)
Intestinal epithelium differentiated, specimens (%) ([2]; 10^−6 M, 16 specimens): 14 (88)
Mesenchyme differentiated, specimens (%) ([2]; 10^−6 M, 16 specimens): 13 (81)
Muscle differentiated, specimens (%) ([2]; 10^−6 M, 16 specimens): 3 (19)
Neural tissue differentiated, specimens (%) ([2]; 10^−6 M, 16 specimens): 0 (0)
Notochord differentiated, specimens (%) ([2]; 10^−6 M, 16 specimens): 14 (88)
Pancreas differentiated, specimens (%) ([2]; 10^−6 M, 16 specimens): 1 (6)
Pharyngeal epithelium differentiated, specimens (%) ([2]; 10^−6 M, 16 specimens): 3 (19)
Pronephros differentiated, specimens (%) ([2]; 10^−6 M, 16 specimens): 0 (0)
Yolk-rich cell differentiated, specimens (%) ([2]; 10^−6 M, 16 specimens): 14 (88)
Atypical epidermis differentiated, specimens (%) ([2]; 10^−7 M, 15 specimens): 0 (0)
Cartilage differentiated, specimens (%) ([2]; 10^−7 M, 15 specimens): 0 (0)
Cement gland differentiated, specimens (%) ([2]; 10^−7 M, 15 specimens): 0 (0)
Coelomic epithelium differentiated, specimens (%) ([2]; 10^−7 M, 15 specimens): 9 (60)
Ear vesicle differentiated, specimens (%) ([2]; 10^−7 M, 15 specimens): 0 (0)
Epidermis differentiated, specimens (%) ([2]; 10^−7 M, 15 specimens): 8 (53)
Eye or its fragments differentiated, specimens (%) ([2]; 10^−7 M, 15 specimens): 0 (0)
Gastric gland differentiated, specimens (%) ([2]; 10^−7 M, 15 specimens): 3 (20)
Hemocyte differentiated, specimens (%) ([2]; 10^−7 M, 15 specimens): 0 (0)
Intestinal epithelium differentiated, specimens (%) ([2]; 10^−7 M, 15 specimens): 5 (33)
Mesenchyme differentiated, specimens (%) ([2]; 10^−7 M, 15 specimens): 9 (60)
Muscle differentiated, specimens (%) ([2]; 10^−7 M, 15 specimens): 4 (27)
Neural tissue differentiated, specimens (%) ([2]; 10^−7 M, 15 specimens): 2 (13)
Notochord differentiated, specimens (%) ([2]; 10^−7 M, 15 specimens): 14 (93)
Pancreas differentiated, specimens (%) ([2]; 10^−7 M, 15 specimens): 1 (7)
Pharyngeal epithelium differentiated, specimens (%) ([2]; 10^−7 M, 15 specimens): 9 (60)
Pronephros differentiated, specimens (%) ([2]; 10^−7 M, 15 specimens): 1 (7)
Yolk-rich cell differentiated, specimens (%) ([2]; 10^−7 M, 15 specimens): 13 (87)
Atypical epidermis differentiated, specimens (%) ([2]; 10^−8 M, 20 specimens): 0 (0)
Cartilage differentiated, specimens (%) ([2]; 10^−8 M, 20 specimens): 9 (45)
Cement gland differentiated, specimens (%) ([2]; 10^−8 M, 20 specimens): 0 (0)
Coelomic epithelium differentiated, specimens (%) ([2]; 10^−8 M, 20 specimens): 6 (30)
Ear vesicle differentiated, specimens (%) ([2]; 10^−8 M, 20 specimens): 0 (0)
Epidermis differentiated, specimens (%) ([2]; 10^−8 M, 20 specimens): 19 (95)
Eye or its fragments differentiated, specimens (%) ([2]; 10^−8 M, 20 specimens): 0 (0)
Gastric gland differentiated, specimens (%) ([2]; 10^−8 M, 20 specimens): 0 (0)
Hemocyte differentiated, specimens (%) ([2]; 10^−8 M, 20 specimens): 0 (0)
Intestinal epithelium differentiated, specimens (%) ([2]; 10^−8 M, 20 specimens): 2 (10)
Mesenchyme differentiated, specimens (%) ([2]; 10^−8 M, 20 specimens): 19 (95)
Muscle differentiated, specimens (%) ([2]; 10^−8 M, 20 specimens): 12 (60)
Neural tissue differentiated, specimens (%) ([2]; 10^−8 M, 20 specimens): 7 (35)
Notochord differentiated, specimens (%) ([2]; 10^−8 M, 20 specimens): 17 (85)
Pancreas differentiated, specimens (%) ([2]; 10^−8 M, 20 specimens): 1 (5)
Pharyngeal epithelium differentiated, specimens (%) ([2]; 10^−8 M, 20 specimens): 12 (60)
Pronephros differentiated, specimens (%) ([2]; 10^−8 M, 20 specimens): 0 (0)
Yolk-rich cell differentiated, specimens (%) ([2]; 10^−8 M, 20 specimens): 9 (45)
Atypical epidermis differentiated, specimens (%) ([2]; 10^−9 M, 11 specimens): 0 (0)
Cartilage differentiated, specimens (%) ([2]; 10^−9 M, 11 specimens): 5 (45)
Cement gland differentiated, specimens (%) ([2]; 10^−9 M, 11 specimens): 0 (0)
Coelomic epithelium differentiated, specimens (%) ([2]; 10^−9 M, 11 specimens): 5 (45)
Ear vesicle differentiated, specimens (%) ([2]; 10^−9 M, 11 specimens): 0 (0)
Epidermis differentiated, specimens (%) ([2]; 10^−9 M, 11 specimens): 11 (100)
Eye or its fragments differentiated, specimens (%) ([2]; 10^−9 M, 11 specimens): 0 (0)
Gastric gland differentiated, specimens (%) ([2]; 10^−9 M, 11 specimens): 0 (0)
Hemocyte differentiated, specimens (%) ([2]; 10^−9 M, 11 specimens): 0 (0)
Intestinal epithelium differentiated, specimens (%) ([2]; 10^−9 M, 11 specimens): 0 (0)
Mesenchyme differentiated, specimens (%) ([2]; 10^−9 M, 11 specimens): 10 (91)
Muscle differentiated, specimens (%) ([2]; 10^−9 M, 11 specimens): 9 (82)
Neural tissue differentiated, specimens (%) ([2]; 10^−9 M, 11 specimens): 9 (82)
Notochord differentiated, specimens (%) ([2]; 10^−9 M, 11 specimens): 11 (100)
Pancreas differentiated, specimens (%) ([2]; 10^−9 M, 11 specimens): 0 (0)
Pharyngeal epithelium differentiated, specimens (%) ([2]; 10^−9 M, 11 specimens): 7 (64)
Pronephros differentiated, specimens (%) ([2]; 10^−9 M, 11 specimens): 0 (0)
Yolk-rich cell differentiated, specimens (%) ([2]; 10^−9 M, 11 specimens): 8 (73)
formation rate of pancreas ([2]; continuous treatment 10 days, any concentration tested): about 10%
